Data: patent EP3808411A1, “COSMETIC COMPOSITIONS AND USE THEREOF” (Mesoestetic Pharma Group, S.L., priority 2019, dated 2020)
“Also recorded” adds a separate entry of the source.

How the values were obtained:
human dermal fibroblasts = test: β-galactosidase staining in a model of UVB-induced senescence; assay type: cell-based
Experimental: (§1) In order to verify the action of the shikimic acid as a protector against the process of cellular senescence induced by Ultraviolet Type-B (UVB) damage, the shikimic acid was tested in a model of UVB-induced senescence in human dermal fibroblasts. In this model, two days after being plated, the cells are irradiated with UVB. After three days, the cells are re-irradiated with UVB. Two days after the second irradiation, the cells are processed for analysis. The shikimic acid is incubated with the cells from 24 h before the first irradiation until the day they are analysed. To assess whether cells are senescent or not, two markers are used. On the one hand, β-galactosidase staining is carried out, which stains the senescent cells blue, since they have an abnormal lysosomal activity at pH 6. Furthermore, the expression of the HAS2 gene is quantified by means of the qPCR technique.

HAS2 gene = HAS2 gene expression by qPCR in a model of UVB-induced senescence; assay type: cell-based, human
Experimental: as §1

With `N#CC(=Cc1ccc(-c2cc(Cl)ccc2Cl)o1)C(=O)Nc1cccc2ncccc12` [AGK2] the “effect of inhibitor on the protective role of shikimic acid on senescence” value (human dermal fibroblasts; UVB-irradiated cells, 10, 25, 50 mM shikimic acid + AGK2 2 µM, Figures 5 and 6) was “do not reverse the protective effect of shikimic acid on senescence”.
For `NC(=O)C1CCCc2c1[nH]c1ccc(Cl)cc21` (centres unmarked) [EX-527], the “effect of inhibitor on the protective role of shikimic acid on senescence (β-galactosidase staining)” value (human dermal fibroblasts; UVB-irradiated cells, 10, 25, 50 mM shikimic acid + EX-527 1 µM, Figure 3) was “capable of reversing the effect of shikimic acid on senescence” and the “HAS2 gene expression with shikimic acid + inhibitor” value (HAS2 gene; UVB-irradiated cells, shikimic acid (SX) + EX-527 1 µM versus SX only, Figure 4) was “reversed to a lesser extent”.
With `O=C(Nc1ccc(O)c(C(=O)O)c1)c1cccc(NC(=O)c2ccco2)c1` [OSS128167] the “effect of inhibitor on the protective role of shikimic acid on senescence” value (human dermal fibroblasts; UVB-irradiated cells, 10, 25, 50 mM shikimic acid + OSS128167 200 µM, Figures 7 and 8) was “do not reverse the protective effect of shikimic acid on senescence”.
In the case of `COC1=C(OC)C(=O)C(CCCCCCCCCCO)=C(C)C1=O` [idebenone], the “protection against UVB damage-induced senescence (β-galactosidase staining)” value (human dermal fibroblasts; UVB-irradiated cells treated with 2.5, 5, 10 µM idebenone, Figure 9) is reported as “neither of these two comparative compounds is capable of protecting against UVB damage-induced senescence”.
With `O=C(O)CCCCC1CCSS1` (centres unmarked) [lipoic acid] the “protection against UVB damage-induced senescence (β-galactosidase staining)” value (human dermal fibroblasts; UVB-irradiated cells treated with 50, 100, 200 µM lipoic acid, Figure 10) was “neither of these two comparative compounds is capable of protecting against UVB damage-induced senescence”.
With `O=C(O)C1=CC(O)C(O)C(O)C1` (centres unmarked) [shikimic acid, 3,4,5-trihydroxy-1-cyclohexene-1-carboxylic acid] the “senescent cells (β-galactosidase staining)” value (human dermal fibroblasts; UVB-irradiated human dermal fibroblasts treated with 10, 25, 50 mM shikimic acid, Figure 1) was “this increase in senescence does not occur; also recorded: more effective than other compounds such as idebenone or lipoic acid” and the HAS2 gene expression (HAS2 gene; UVB-irradiated human dermal fibroblasts treated with 10, 25, 50 mM shikimic acid, Figure 2) was “this decrease is reversed in gene expression”.
